Assay results published in PubChem BioAssay (NCI).
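Growth conditions: 96-well plates. Treatment: test compound, 48 hours, 5 concentrations. Analysis: linear interpolation between bracketing concentrations; unreached endpoints set to highest concentration. Here, GI50 denotes the concentration required for 50% inhibition of growth. At the TGI there is no net growth.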

Experiments:
Assay in all cases: DTP human tumour cell line panel, 48 h
HCT-15 colon = test system: HCT-15 colon
IGROV1 ovarian = test system: IGROV1 ovarian
K-562 leukemia = test system: K-562 leukemia
LOX IMVI melanoma = test system: LOX IMVI melanoma
RXF 393 renal = test system: RXF 393 renal
SN12C renal = test system: SN12C renal
SNB-19 CNS = test system: SNB-19 CNS
SR leukemia = test system: SR leukemia
A498 renal = test system: A498 renal
MALME-3M melanoma = test system: MALME-3M melanoma

Structure (SMILES)	GI50 (HCT-15 colon) [µM]	TGI (HCT-15 colon) [µM]	GI50 (IGROV1 ovarian) [µM]	TGI (IGROV1 ovarian) [µM]	GI50 (K-562 leukemia) [µM]	TGI (K-562 leukemia) [µM]	GI50 (LOX IMVI melanoma) [µM]	TGI (LOX IMVI melanoma) [µM]	GI50 (RXF 393 renal) [µM]	TGI (RXF 393 renal) [µM]	GI50 (SN12C renal) [µM]	TGI (SN12C renal) [µM]	GI50 (SNB-19 CNS) [µM]	TGI (SNB-19 CNS) [µM]	GI50 (SR leukemia) [µM]	TGI (SR leukemia) [µM]	GI50 (A498 renal) [µM]	TGI (A498 renal) [µM]	GI50 (MALME-3M melanoma) [µM]	TGI (MALME-3M melanoma) [µM]
COc1cc([C@@H]2c3cc4c(cc3[C@H](SC(=N)N)[C@H]3COC(=O)[C@H]23)OCO4)cc(OC)c1OC	0.321	> 100	0.227	4.66	0.14	> 100	0.0799	> 100	2.3	35.6	0.621	> 100	0.449	> 100	0.0897	> 100	–	–	–	–
Nc1nc(Cl)c2ncn(Cc3ccc(C45CC6CC(CC(C6)C4)C5)c(OCc4cc(F)c(F)cc4F)c3)c2n1	3.57	14.1	2.77	13.8	–	–	1.88	8.64	0.677	2.66	3.05	11.3	6.48	46.6	–	–	8.78	22.8	2.47	8.62
CCc1c(OC(C)=O)c2c(NC3OC(COC(C)=O)C(OC(C)=O)C(OC(C)=O)C3OC(C)=O)nc(SC)nc2oc1=O (stereo not drawn)	–	> 100	–	> 100	–	> 100	–	> 100	–	> 100	–	> 100	–	> 100	–	–	–	> 100	–	> 100
COc1ccccc1/C=C(\NC(=O)c1ccccc1)c1nc2ccc(Cl)cc2[nH]1	–	> 100	–	> 100	–	> 100	–	> 100	–	> 100	–	> 100	–	> 100	–	–	–	80.9	–	> 100
CCCCCCCCCCCCCCCC(=O)OCC1OC(n2cc(F)c(=O)[nH]c2=O)C(NC(=O)OCc2ccccc2)C(O)C1O (stereo not drawn)	–	34.4	–	46.6	–	31.8	–	32.5	–	–	–	38	–	32.4	–	–	–	35.5	–	9.44
C[n+]1cn(CC(=O)c2ccccc2)c(C(N)=O)c1N	–	> 100	–	> 100	–	–	–	> 100	–	–	–	> 100	–	> 100	–	> 100	–	> 100	–	> 100
C=C1C(=O)O[C@@H]2C[C@@]3(C)[C@H](O)CCC(=C)[C@@H]3C[C@H]12	–	35.1	–	45.2	–	10.2	–	20.7	–	–	–	23.2	–	46.9	–	14	–	–	–	12.6
COc1ccc(/C=C/C(=O)c2c(-c3ccccc3)nn(C)c(=O)c2N2CCCCC2)cc1	–	> 100	–	77.9	–	63	–	38.2	–	28	–	64.2	–	86.5	–	–	–	–	–	–
Cc1ccc(-n2nc(C(OC3OC(CO)C(O)C(O)C3O)C(O)CO)c3nc4cc(C)c(C)cc4nc32)cc1 (stereo not drawn)	–	> 100	–	–	–	> 100	–	> 100	–	> 100	–	> 100	–	> 100	–	–	–	> 100	–	> 100
O=c1c2ccccc2nc(-c2cccc(Cl)c2)n1NC1OC(CO)C(O)C(O)C1O (stereo not drawn)	–	> 100	–	> 100	–	> 100	–	–	–	–	–	> 100	–	> 100	–	–	–	> 100	–	> 100
COc1ccc(-c2cnc(-c3ccncc3-c3cccc(OC)c3)o2)cc1	0.0473	14.5	0.0754	18.4	0.0288	12.8	0.0599	15.5	–	–	0.0798	16	0.0451	19.5	< 0.0152	13.5	–	–	–	–
Cc1ccc(S(=O)(=O)Nc2ccccc2C(C)(C)C)cc1	–	54.6	–	> 100	–	50.1	–	–	–	26.8	–	–	–	–	–	–	–	59.7	–	89.1
CCCCCCCCCC1CC(=O)OC23CCCC(=O)C12O3 (stereo not drawn)	–	> 100	–	> 100	–	> 100	–	> 100	–	> 100	–	> 100	–	> 100	–	–	–	> 100	–	> 100
O=C1C=CC2(O)OCC3C=C4O[C@@H]5OC6(CCCCC6)O[C@@H]5C4[C@@H]2[C@@H]13 (stereo partly drawn)	–	58.7	–	> 100	–	44.8	–	> 100	–	–	–	> 100	–	> 100	–	–	–	> 100	–	62.1
CCOC(=O)c1cn(C)c2c(OC)c3ccccc3c(OC)c2c1=O	29.6	> 100	52.6	> 100	36.4	> 100	20.7	58.6	–	–	28.1	86.9	36.6	> 100	28.5	88.6	–	–	8.95	30.3
Cc1nc2sccn2c1C(=O)NNC(N)=S	–	> 100	–	> 100	–	> 100	–	> 100	–	> 100	–	> 100	–	> 100	–	> 100	–	–	–	> 100
COC(=O)[C@]12CC[C@@H](C)[C@H](C)[C@@H]1C1=CC[C@@H]3[C@@]4(C)C(C=O)=C[C@@](C)(COS(C)(=O)=O)C4=CC[C@@]3(C)[C@]1(C)CC2	–	–	0.318	1.06	0.308	1.17	0.169	0.316	0.17	0.358	0.339	1.92	0.48	1.96	–	–	0.193	1.13	0.173	0.34
Cc1ccc2ccc3c4ccccc4ccc3c2c1	23.3	83.5	20	94.8	34.7	> 100	19.8	44.3	20.1	46.8	27	> 100	26.7	> 100	–	–	23.1	63.6	22.1	54.3
O=C1c2cccc3c(N4CCOCC4)ccc(c23)C(=O)N1CCN1CCN(CCCCCN2CCN(CCN3C(=O)c4cccc5c(N6CCOCC6)ccc(c45)C3=O)CC2)CC1	> 100	> 100	–	–	36	> 100	> 100	> 100	59.8	> 100	57.4	> 100	> 100	> 100	–	–	> 100	> 100	> 100	> 100
